Data published in BindingDB's records for doi:10.1021/jm070487n (Universita Degli Studi Di Bari, 2007).

What was measured:
[1] = molecular target: T1, 5-hydroxytryptamine receptor 1A (Homo sapiens, UniProt P08908); experiment: Radioligand Labeled Binding Assay
T1 sequence (P08908 whole entry): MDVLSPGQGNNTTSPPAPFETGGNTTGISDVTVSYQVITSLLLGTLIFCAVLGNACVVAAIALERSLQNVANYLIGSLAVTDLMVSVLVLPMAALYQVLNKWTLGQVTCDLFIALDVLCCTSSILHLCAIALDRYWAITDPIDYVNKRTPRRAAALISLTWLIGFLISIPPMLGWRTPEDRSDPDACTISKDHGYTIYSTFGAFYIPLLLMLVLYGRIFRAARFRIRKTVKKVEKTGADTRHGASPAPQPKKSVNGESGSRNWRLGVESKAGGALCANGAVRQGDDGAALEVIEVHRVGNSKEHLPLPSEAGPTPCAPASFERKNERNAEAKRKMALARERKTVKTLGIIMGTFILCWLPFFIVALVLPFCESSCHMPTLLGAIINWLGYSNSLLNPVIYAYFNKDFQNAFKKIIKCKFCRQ
Method: (§1) IC50 values for each test compound were determined from nonlinear regression analysis of data collected from ligand binding experiments. The inhibition constant (Ki) was calculated from IC50 value by the Cheng and Prusoff equation.

[2] = molecular target: 5-hydroxytryptamine receptor 2A (Rattus norvegicus, UniProt P14842); experiment: Radioligand Labeled Binding Assay
5-hydroxytryptamine receptor 2A, sequence (P14842 whole entry): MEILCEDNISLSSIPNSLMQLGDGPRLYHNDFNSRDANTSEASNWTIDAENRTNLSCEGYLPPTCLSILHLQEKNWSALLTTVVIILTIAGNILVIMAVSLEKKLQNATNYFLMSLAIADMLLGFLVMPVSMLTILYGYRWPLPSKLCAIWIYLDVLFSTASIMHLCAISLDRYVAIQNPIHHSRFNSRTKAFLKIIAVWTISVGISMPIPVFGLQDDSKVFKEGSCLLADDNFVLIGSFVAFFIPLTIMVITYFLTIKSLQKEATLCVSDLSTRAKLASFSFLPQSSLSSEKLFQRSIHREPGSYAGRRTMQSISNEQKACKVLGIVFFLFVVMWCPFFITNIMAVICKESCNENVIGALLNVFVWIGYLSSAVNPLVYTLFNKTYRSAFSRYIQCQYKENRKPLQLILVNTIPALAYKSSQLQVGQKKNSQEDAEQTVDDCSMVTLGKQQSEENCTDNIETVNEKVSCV
Method: as §1

Ki [1] [µM]	Ki [2] [µM]	Structure (SMILES)
0.0527		CSc1ccccc1N1CCN(CCCCCC(=O)NC2CCCc3ccccc32)CC1 (configuration not stated)
0.0086	1.26	COc1ccccc1N1CCN(CCCCCC(=O)NC2CCCc3ccccc32)CC1 (configuration not stated)
0.279		Cc1ccccc1N1CCN(CCCCCC(=O)NC2CCCc3ccccc32)CC1 (configuration not stated)
0.00385		CC(=O)c1ccccc1N1CCN(CCCCCC(=O)NC2CCCc3ccccc32)CC1 (configuration not stated)
0.024		O=C(CCCCCN1CCN(c2ccccc2O)CC1)NC1CCCc2ccccc21 (configuration not stated)
0.128		O=C(CCCCCN1CCN(c2ccccc2)CC1)NC1CCCc2ccccc21 (configuration not stated)
0.096		O=C(CCCCCN1CCN(c2ccccc2Cl)CC1)NC1CCCc2ccccc21 (configuration not stated)
3.12		CS(=O)(=O)c1ccccc1N1CCN(CCCCCC(=O)NC2CCCc3ccccc32)CC1 (configuration not stated)
0.494		NC(=O)c1ccccc1N1CCN(CCCCCC(=O)NC2CCCc3ccccc32)CC1 (configuration not stated) [2-{4-[5-(1,2,3,4-tetrahydronaphthalen-1-ylcarbamoyl)pentyl]piperazin-1-yl}benzamide]
0.0166		N#Cc1ccccc1N1CCN(CCCCCC(=O)NC2CCCc3ccccc32)CC1 (configuration not stated) [6-[4-(2-cyanophenyl)piperazin-1-yl]-N-(1,2,3,4-tetrahydronaphthalen-1-yl)hexanamide]
0.183		O=C(CCCCCN1CCN(c2ccccc2[N+](=O)[O-])CC1)NC1CCCc2ccccc21 (configuration not stated) [6-[4-(2-nitrophenyl)piperazin-1-yl]-N-(1,2,3,4-tetrahydronaphthalen-1-yl)hexanamide]
